Results on seven cell lines are retold here after the supplement of paper PMC10307832.

Experiment in all cases: relative viability (nuclei count vs DMSO), 5 days (fraction); higher = more cells survive
Compound in the test “CX-5461 + Luminespib”: Cc1cnc(CNC(=O)c2c(=O)c3ccc(N4CCCN(C)CC4)nc3n3c2sc2ccccc23)cn1 [CX-5461] + CCNC(=O)c1noc(-c2cc(C(C)C)c(O)cc2O)c1-c1ccc(CN2CCOCC2)cc1 [Luminespib] (partner 0.01 µM)
The procedure, abridged: (§1)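 A single step with final 0.05% Triton X-100, 1% formaldehyde and 1 ug/ml Hoechst fixed the cells and stained nuclei 5 days after treatment. Lung cancer cell lines in 1536-well plates had been treated by pin tool the day after seeding with one drug alone or a fixed anchor-drug dose plus five library-drug doses (not always all listed) in √10 steps, and nuclei were counted on 4× images. Relative viability is the ratio of nuclei in treated wells to nuclei in vehicle wells, taken as the median of duplicate plates.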

Compound in the test “CX-5461 + Crizotinib”: Cc1cnc(CNC(=O)c2c(=O)c3ccc(N4CCCN(C)CC4)nc3n3c2sc2ccccc23)cn1 [CX-5461] + C[C@@H](Oc1cc(-c2cnn(C3CCNCC3)c2)cnc1N)c1c(Cl)ccc(F)c1Cl [Crizotinib] (partner 1 µM)
The essentials: as §1

Compound in the test “CX-5461 + Pemetrexed”: Cc1cnc(CNC(=O)c2c(=O)c3ccc(N4CCCN(C)CC4)nc3n3c2sc2ccccc23)cn1 [CX-5461] + Nc1nc2[nH]cc(CCc3ccc(C(=O)N[C@@H](CCC(=O)O)C(=O)O)cc3)c2c(=O)[nH]1 [Pemetrexed] (partner 0.2 µM)
The essentials: as §1

Compound in the test “IMD-0354 + OSI-027”: O=C(Nc1cc(C(F)(F)F)cc(C(F)(F)F)c1)c1cc(Cl)ccc1O [IMD-0354] + COc1cccc2cc(-c3nc([C@H]4CC[C@H](C(=O)O)CC4)n4ncnc(N)c34)[nH]c12 [OSI-027] (partner 0.5 µM)
The procedure, abridged:
as §1

Turning to PC-3 [JPC-3], the relative viability with CX-5461 + Luminespib (first compound 0.01 µM) came to 0.726; with CX-5461 + Luminespib (first compound 0.03162 µM), 0.708; with CX-5461 + Luminespib (first compound 0.1 µM), 0.62; with CX-5461 + Luminespib (first compound 0.3162 µM), 0.635; with CX-5461 + Luminespib (first compound 1 µM), 0.721; in the test with CX-5461 + Crizotinib (first compound 0.01 µM), 0.987. Besides, the relative viability with CX-5461 + Crizotinib (first compound 0.03162 µM) stood at 0.996; with CX-5461 + Crizotinib (first compound 0.1 µM), 0.969; in the test with CX-5461 + Crizotinib (first compound 0.3162 µM), 0.952; in the test with CX-5461 + Crizotinib (first compound 1 µM) it was 0.926; in the test with CX-5461 + Pemetrexed (first compound 0.01 µM), 1.18; in the test with CX-5461 + Pemetrexed (first compound 0.1 µM) it was 1.11. For the same cell line, the relative viability with CX-5461 + Pemetrexed (first compound 0.3162 µM) came to 1.15; with CX-5461 + Pemetrexed (first compound 1 µM), 0.86; with IMD-0354 + OSI-027 (first compound 0.04 µM), 0.845; in the test with IMD-0354 + OSI-027 (first compound 0.1265 µM), 0.708; in the test with IMD-0354 + OSI-027 (first compound 0.4 µM), 0.605; in the test with IMD-0354 + OSI-027 (first compound 1.265 µM), 0.344. Further, the relative viability in the test with IMD-0354 + OSI-027 (first compound 4 µM) stood at 0.282.
As to PC-14, the relative viability came to 0.14 in the test with CX-5461 + Luminespib (first compound 0.01 µM); 0.163 with CX-5461 + Luminespib (first compound 0.03162 µM); 0.222 with CX-5461 + Luminespib (first compound 0.1 µM); 0.204 with CX-5461 + Luminespib (first compound 0.3162 µM); 0.124 with CX-5461 + Luminespib (first compound 1 µM); 1.02 in the test with CX-5461 + Crizotinib (first compound 0.01 µM). The relative viability in the test with CX-5461 + Crizotinib (first compound 0.03162 µM) came to 1.05; in the test with CX-5461 + Crizotinib (first compound 0.1 µM), 0.957; with CX-5461 + Crizotinib (first compound 0.3162 µM) it was 0.863; with CX-5461 + Crizotinib (first compound 1 µM) it was 0.91; with CX-5461 + Pemetrexed (first compound 0.01 µM) it was 0.134; with CX-5461 + Pemetrexed (first compound 0.03162 µM), 0.134. For the same cell line, the relative viability amounted to 0.118 in the test with CX-5461 + Pemetrexed (first compound 0.1 µM); 0.157 in the test with CX-5461 + Pemetrexed (first compound 0.3162 µM); 0.113 with CX-5461 + Pemetrexed (first compound 1 µM); 0.972 in the test with IMD-0354 + OSI-027 (first compound 0.04 µM); 0.805 with IMD-0354 + OSI-027 (first compound 0.1265 µM); 0.284 with IMD-0354 + OSI-027 (first compound 0.4 µM). In addition, the results for the relative viability in the test with IMD-0354 + OSI-027 (first compound 1.265 µM) and with IMD-0354 + OSI-027 (first compound 4 µM) were 0.115 and 0.0708, respectively.
In the case of RERF-LC-KJ, the relative viability with CX-5461 + Luminespib (first compound 0.01 µM) was 1.28; in the test with CX-5461 + Luminespib (first compound 0.03162 µM) it was 1.24; with CX-5461 + Luminespib (first compound 0.1 µM) it was 1.19; with CX-5461 + Luminespib (first compound 0.3162 µM), 1.27; in the test with CX-5461 + Luminespib (first compound 1 µM), 0.687; with CX-5461 + Crizotinib (first compound 0.01 µM), 0.807. The relative viability is 0.562 with CX-5461 + Crizotinib (first compound 0.03162 µM); 0.833 with CX-5461 + Crizotinib (first compound 0.1 µM); 0.774 in the test with CX-5461 + Crizotinib (first compound 0.3162 µM); 0.778 with CX-5461 + Crizotinib (first compound 1 µM); 0.508 with CX-5461 + Pemetrexed (first compound 0.01 µM); 0.465 with CX-5461 + Pemetrexed (first compound 0.03162 µM). Further, the relative viability with CX-5461 + Pemetrexed (first compound 0.1 µM) is 0.442; with CX-5461 + Pemetrexed (first compound 0.3162 µM), 0.403; with CX-5461 + Pemetrexed (first compound 1 µM), 0.434; in the test with IMD-0354 + OSI-027 (first compound 0.04 µM), 0.649; with IMD-0354 + OSI-027 (first compound 0.1265 µM), 0.628; in the test with IMD-0354 + OSI-027 (first compound 0.4 µM), 0.493. Further, the relative viability with IMD-0354 + OSI-027 (first compound 1.265 µM) was determined as 0.198; with IMD-0354 + OSI-027 (first compound 4 µM) it was 0.214.
For SK-LU-1, the relative viability came out at 0.22 in the test with CX-5461 + Luminespib (first compound 0.01 µM); 0.185 with CX-5461 + Luminespib (first compound 0.03162 µM); 0.204 with CX-5461 + Luminespib (first compound 0.1 µM); 0.166 with CX-5461 + Luminespib (first compound 1 µM); 0.95 with CX-5461 + Crizotinib (first compound 0.01 µM); 1.01 in the test with CX-5461 + Crizotinib (first compound 0.03162 µM). Also, the relative viability came out at 0.837 in the test with CX-5461 + Crizotinib (first compound 0.1 µM); 0.891 with CX-5461 + Crizotinib (first compound 0.3162 µM); 0.51 in the test with CX-5461 + Crizotinib (first compound 1 µM); 1.06 with CX-5461 + Pemetrexed (first compound 0.01 µM); 1.12 in the test with CX-5461 + Pemetrexed (first compound 0.03162 µM); 0.852 in the test with CX-5461 + Pemetrexed (first compound 0.1 µM). Moreover, the relative viability was found to be 0.965 with CX-5461 + Pemetrexed (first compound 0.3162 µM); 0.651 in the test with CX-5461 + Pemetrexed (first compound 1 µM); 0.32 in the test with IMD-0354 + OSI-027 (first compound 0.04 µM); 0.305 with IMD-0354 + OSI-027 (first compound 0.1265 µM); 0.277 with IMD-0354 + OSI-027 (first compound 0.4 µM); 0.181 in the test with IMD-0354 + OSI-027 (first compound 1.265 µM). Further, in the test with IMD-0354 + OSI-027 (first compound 4 µM), the relative viability was 0.193.
For the cell line SK-MES-1, the relative viability with CX-5461 + Luminespib (first compound 0.01 µM) was determined as 0.801; with CX-5461 + Luminespib (first compound 0.03162 µM), 0.975; with CX-5461 + Luminespib (first compound 0.1 µM) it was 0.695; in the test with CX-5461 + Luminespib (first compound 0.3162 µM), 0.735; with CX-5461 + Luminespib (first compound 1 µM), 0.304; with CX-5461 + Crizotinib (first compound 0.01 µM), 0.969. Also, the relative viability with CX-5461 + Crizotinib (first compound 0.03162 µM) worked out at 1.14; in the test with CX-5461 + Crizotinib (first compound 0.1 µM), 1.01; in the test with CX-5461 + Crizotinib (first compound 0.3162 µM) it was 0.958; with CX-5461 + Crizotinib (first compound 1 µM), 0.948; with CX-5461 + Pemetrexed (first compound 0.01 µM), 0.95; with CX-5461 + Pemetrexed (first compound 0.03162 µM) it was 0.988. The relative viability with CX-5461 + Pemetrexed (first compound 0.1 µM) was 0.888; with CX-5461 + Pemetrexed (first compound 0.3162 µM), 0.955; with CX-5461 + Pemetrexed (first compound 1 µM), 0.546; in the test with IMD-0354 + OSI-027 (first compound 0.04 µM), 0.647; with IMD-0354 + OSI-027 (first compound 0.1265 µM), 0.542; with IMD-0354 + OSI-027 (first compound 0.4 µM) it was 0.462. The figures for the relative viability with IMD-0354 + OSI-027 (first compound 1.265 µM) and with IMD-0354 + OSI-027 (first compound 4 µM) were 0.199 and 0.202, respectively.
For the cell line SW 1573, the relative viability with CX-5461 + Luminespib (first compound 0.01 µM) is 0.295; with CX-5461 + Luminespib (first compound 0.03162 µM) it was 0.163; in the test with CX-5461 + Luminespib (first compound 0.1 µM), 0.164; with CX-5461 + Luminespib (first compound 0.3162 µM) it was 0.187; with CX-5461 + Luminespib (first compound 1 µM), 0.0965; in the test with CX-5461 + Crizotinib (first compound 0.01 µM), 0.806. In addition, the relative viability is 0.817 with CX-5461 + Crizotinib (first compound 0.03162 µM); 0.889 in the test with CX-5461 + Crizotinib (first compound 0.1 µM); 0.633 with CX-5461 + Crizotinib (first compound 0.3162 µM); 0.657 with CX-5461 + Crizotinib (first compound 1 µM); 0.88 with CX-5461 + Pemetrexed (first compound 0.01 µM); 0.845 with CX-5461 + Pemetrexed (first compound 0.03162 µM). Besides, the relative viability came out at 0.153 in the test with CX-5461 + Pemetrexed (first compound 0.1 µM); 0.692 in the test with CX-5461 + Pemetrexed (first compound 0.3162 µM); 0.203 with CX-5461 + Pemetrexed (first compound 1 µM); 0.849 in the test with IMD-0354 + OSI-027 (first compound 0.04 µM); 0.566 with IMD-0354 + OSI-027 (first compound 0.1265 µM); 0.349 with IMD-0354 + OSI-027 (first compound 0.4 µM). Besides, the relative viability worked out at 0.124 with IMD-0354 + OSI-027 (first compound 1.265 µM) and 0.0864 in the test with IMD-0354 + OSI-027 (first compound 4 µM).
For UMC-11, the relative viability with CX-5461 + Luminespib (first compound 0.01 µM) is 1.01; in the test with CX-5461 + Luminespib (first compound 0.03162 µM) it was 0.931; with CX-5461 + Luminespib (first compound 0.1 µM), 0.965; in the test with CX-5461 + Luminespib (first compound 0.3162 µM) it was 0.951; with CX-5461 + Luminespib (first compound 1 µM), 0.423; with CX-5461 + Crizotinib (first compound 0.01 µM), 0.63. The relative viability with CX-5461 + Crizotinib (first compound 0.03162 µM) worked out at 0.655; with CX-5461 + Crizotinib (first compound 0.1 µM) it was 0.694; with CX-5461 + Crizotinib (first compound 0.3162 µM) it was 0.607; with CX-5461 + Crizotinib (first compound 1 µM), 0.153; with CX-5461 + Pemetrexed (first compound 0.01 µM), 0.825; with CX-5461 + Pemetrexed (first compound 0.03162 µM), 0.871. In addition, the relative viability with CX-5461 + Pemetrexed (first compound 0.1 µM) is 0.722; with CX-5461 + Pemetrexed (first compound 0.3162 µM), 0.763; with CX-5461 + Pemetrexed (first compound 1 µM) it was 0.408; with IMD-0354 + OSI-027 (first compound 0.04 µM) it was 0.57; with IMD-0354 + OSI-027 (first compound 0.1265 µM) it was 0.469; with IMD-0354 + OSI-027 (first compound 0.4 µM), 0.3. Further, the relative viability with IMD-0354 + OSI-027 (first compound 1.265 µM) was 0.215; with IMD-0354 + OSI-027 (first compound 4 µM), 0.205.
